Values of other authors, collected in patent US20230364032A1, “USE OF 2-HOBA TO TREAT ATHEROSCLEROSIS” (Vanderbilt University, priority 2020, published 2023).
Read-outs that look alike come from different tables or passages of the source.

Columns and labels:
Apoe−/− mice = conditions: cited from earlier work; for effect on atherosclerotic lesions: streptozotocin-treated Apoe−/− mice
IL-1β = target: T1, IL-1β (Homo sapiens, UniProt P01584); conditions: humans with prior MI and elevated hsCRP; cited from earlier work
T1 construct: host or cells: patients of a clinical trial (endogenous protein)

NCCC(=O)N[C@@H](Cc1cnc[nH]1)C(=O)O [carnosine]
effect on atherosclerosis (Apoe−/− mice; Apoe−/− mice or streptozotocin-treated Apoe−/− mice): reduce atherosclerosis

canakinumab: an IL-1β neutralizing monoclonal antibody
cardiovascular event rates (IL-1β): reduce cardiovascular event rates

N=C(N)NN [aminoguanidine]
effect on atherosclerotic lesions (Apoe−/− mice): reduce atherosclerotic lesions

Cc1c(C)c2c(c(C)c1O)CC[C@@](C)(CCC[C@H](C)CCC[C@H](C)CCCC(C)C)O2 [alpha tocopherol]
effect on atherosclerosis (Apoe−/− mice; Apoe−/− mice): reduces
effect on urine F2-IsoP levels (Apoe−/− mice; Apoe−/− mice): reduces

Cc1ncc(CO)c(CN)c1O [pyridoxamine]
effect on atherosclerotic lesions (Apoe−/− mice): reduce atherosclerotic lesions
